What was measured:
sedge, umbrella = assay: Test B flood; format: in vivo, Cyperus difformis; settings: 250 g ai/ha, visual rating on 0 to 100 scale (0 no effect, 100 complete control), 13 to 15 days
Outline: (§1)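 2-leaf plants; pots flooded 3 cm over soil; compound added to paddy water, depth kept constant. Greenhouse 13–15 d. Visual rating vs controls, 0–100 scale (100 = complete control); dash = no result.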

foxtail, giant [1] = assay: Test A postemergence; format: in vivo, Setaria faberii; settings: Postemergence
Outline: (§2)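 Injury readout: eye-scored versus untreated controls, 0 to 100. Exposure period: ~10 days, greenhouse. Application: soil-directed spray over sown seed (pre) or spray on seedlings 2–10 cm tall with one or two leaves (post), compound carried in non-phytotoxic solvent including surfactant.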

wheat [2] = assay: Test A preemergence; format: in vivo, Triticum aestivum; settings: preemergence
Outline: as §2

velvetleaf [3] = assay: Test A postemergence; format: in vivo, Abutilon theophrasti; settings: Postemergence
Outline: as §2

crabgrass, large [4] = assay: Test A preemergence; format: in vivo, Digitaria sanguinalis; settings: preemergence
Outline: as §2

morningglory [5] = assay: Test A preemergence; format: in vivo, Ipomoea spp.; settings: preemergence
Outline: as §2

barnyardgrass [6] = assay: Test B flood; format: in vivo, Echinochloa crus-galli; settings: 250 g ai/ha, visual rating on 0 to 100 scale (0 no effect, 100 complete control), 13 to 15 days
Outline: as §1

ducksalad = assay: Test B flood; format: in vivo, Heteranthera limosa; settings: 250 g ai/ha, visual rating on 0 to 100 scale (0 no effect, 100 complete control), 13 to 15 days
Outline: as §1

barnyardgrass [7] = assay: Test A postemergence; format: in vivo, Echinochloa crus-galli; settings: Postemergence
Outline: as §2

barnyardgrass [8] = assay: Test A preemergence; format: in vivo, Echinochloa crus-galli; settings: preemergence
Outline: as §2

crabgrass, large [9] = assay: Test A postemergence; format: in vivo, Digitaria sanguinalis; settings: Postemergence
Outline: as §2

pigweed [10] = assay: Test A preemergence; format: in vivo, Amaranthus retroflexus; settings: preemergence
Outline: as §2

rice = assay: Test B flood; format: in vivo, Oryza sativa; settings: 250 g ai/ha, visual rating on 0 to 100 scale (0 no effect, 100 complete control), 13 to 15 days
Outline: as §1

foxtail, giant [11] = assay: Test A preemergence; format: in vivo, Setaria faberii; settings: preemergence
Outline: as §2

morningglory [12] = assay: Test A postemergence; format: in vivo, Ipomoea spp.; settings: Postemergence
Outline: as §2

velvetleaf [13] = assay: Test A preemergence; format: in vivo, Abutilon theophrasti; settings: preemergence
Outline: as §2

corn [14] = assay: Test A preemergence; format: in vivo, Zea mays; settings: preemergence
Outline: as §2

pigweed [15] = assay: Test A postemergence; format: in vivo, Amaranthus retroflexus; settings: Postemergence
Outline: as §2

wheat [16] = assay: Test A postemergence; format: in vivo, Triticum aestivum; settings: Postemergence
Outline: as §2

corn [17] = assay: Test A postemergence; format: in vivo, Zea mays; settings: Postemergence
Outline: as §2

[18] = 125 g ai/ha, 0 to 100 scale, 0 no effect, 100 complete control
[19] = 500 g ai/ha, 0 to 100 scale (0 no effect, 100 complete control)
[20] = 125 g ai/ha, visual injury approx. 10 days after treatment
[21] = 500 g ai/ha, visual injury, 0 to 100 scale, approx. 10 days

CCONC(=O)c1cc(C)n(Cc2ccnc(C(F)(F)F)c2)n1 [Compound 231]
Plant response rating, Sedge, Umbrella (sedge, umbrella): 0 | Foxtail, Giant plant response rating (foxtail, giant [1]; [18]): 0 | Foxtail, Giant plant response rating (foxtail, giant [1]; [19]): 0 | Wheat plant response rating (0 to 100 scale) (wheat [2]; [20]): 0 | Wheat plant response rating (wheat [2]; [21]): 0 | Velvetleaf plant response rating (velvetleaf [3]; [18]): 0 | Velvetleaf plant response rating (velvetleaf [3]; [19]): 0 | Crabgrass, Large plant response rating (0 to 100 scale) (crabgrass, large [4]; [20]): 0 | Crabgrass, Large plant response rating (crabgrass, large [4]; [21]): 0 | Morningglory plant response rating (0 to 100 scale) (morningglory [5]; [20]): 0 | Morningglory plant response rating (morningglory [5]; [21]): 0 | Plant response rating, Barnyardgrass (barnyardgrass [6]): 0 | Plant response rating, Ducksalad (ducksalad): 0 | Barnyardgrass plant response rating (barnyardgrass [7]; [18]): 0 | Barnyardgrass plant response rating (barnyardgrass [7]; [19]): 0 | Barnyardgrass plant response rating (0 to 100 scale, 0 is no effect, 100 is complete control) (barnyardgrass [8]; [20]): 0 | Barnyardgrass plant response rating (barnyardgrass [8]; 500 g ai/ha, visual injury, 0 to 100 scale (0 no effect, 100 complete control), approx. 10 days): 0 | Crabgrass, Large plant response rating (crabgrass, large [9]; [18]): 0 | Crabgrass, Large plant response rating (crabgrass, large [9]; [19]): 10 | Pigweed plant response rating (0 to 100 scale) (pigweed [10]; [20]): 0 | Pigweed plant response rating (pigweed [10]; [21]): 0 | Plant response rating, Rice (rice): 0 | Foxtail, Giant plant response rating (0 to 100 scale) (foxtail, giant [11]; [20]): 0 | Foxtail, Giant plant response rating (foxtail, giant [11]; [21]): 0 | Morningglory plant response rating (morningglory [12]; [18]): 0 | Morningglory plant response rating (morningglory [12]; [19]): 0 | Velvetleaf plant response rating (0 to 100 scale) (velvetleaf [13]; [20]): 0 | Velvetleaf plant response rating (velvetleaf [13]; [21]): 0 | Corn plant response rating (0 to 100 scale) (corn [14]; [20]): 0 | Corn plant response rating (corn [14]; [21]): 0 | Pigweed plant response rating (pigweed [15]; [18]): 0 | Pigweed plant response rating (pigweed [15]; [19]): 0 | Wheat plant response rating (wheat [16]; [18]): 0 | Wheat plant response rating (wheat [16]; [19]): 0 | Corn plant response rating (corn [17]; [18]): 0 | Corn plant response rating (corn [17]; [19]): 10
